Data set [1] deals with bovine trachea smooth muscle (BTSM) strips. Description: Bovine trachea smooth muscle (BTSM) strips, isometric tension measurements. Conditions: for EC50: Bos taurus, relaxation of methacholine-pre-contracted BTSM strips, mean ± SEM, 3 determinations; for effect of the ß2-adrenoceptor antagonist propranolol on the relaxation of BTSM strips induced by the compound: 1 μM propranolol, 30 minutes prior (FIG. 4); for shift of the dose response curve for isoprenaline (isoprenaline-induced relaxation): BTSM strips pre-incubated with compound at 30 μM (FIG. 5); for contraction induced by methacholine: BTSM strips pre-incubated with compound at 30 μM, methacholine dose response curve (FIG. 6); for relaxation of methacholine-pre-contracted BTSM strips: accumulative doses 1-300 μM, strips pre-contracted with methacholine (FIG. 3); for isometric tension of BTSM strips at 30 μM: concentration of 30 μM. The protocol: (§1) For cell-based studies, the SUL compounds were dissolved in 0.9% NaCl as 1 mM stock solutions. For the isometric tension measurements, the SUL compounds were dissolved in 100% DMSO as 100 mM stock solution.
Assay 3: Bovein Trachea Smooth Muscle (BTSM) Strips and Isometric Tension Measurements
Isometric tension measurements were performed as described previously (Roscioni et al., 2011: Roscioni, Prins et al., 2011). BTSM strips were mounted for isometric recording in organ-baths, containing Krebs-Henseleit (KH) buffer, containing in mM: […], 25 NaHCO3, 5.5 glucose, 5.6 KCl, 1.18 MgSO4, 2.50 CaCl2, 1.28 NaH2PO4, pre-gasses with 5% of CO2 and 95% O2, pH 7.4. After dissection of the smooth muscle layer and careful removal of connective tissue, BTSM strips of approximately 1 cm length and 2 mm width were prepared. Tissue strips were cultured in DMEM supplemented with non-essential amino acid mixture (1:100), sodium pyruvate (1 mM), gentamicin (45 μg*ml−1), penicillin (100 U*ml−1), streptomycin 100 μg*ml−1, amphotericin B (1.5 μg*ml−1) apo-transferrin (5 μg*ml−1) and ascorbic acid (100 μM). The BTSM strips were cultured for 1-3 days before isometric tension measurement in an Innova 4000 incubator shaker 37° C. 55 rpm).
For isometric tension measurements (Roscioni et al., 2011: Roscioni, Prins et al., 2011). BTSM strips were calibrated, were mounted into the transducers and submerged into the organ baths in pre-gassed KH buffer. Each strip was adjusted to a basal tension of 3 gram. Then, the strips were washed, equilibrated again for 60 minutes, followed by pre-contractions induced by 1×10-3.5 μM methacholine. To analyze acute effects of the SUL-compounds on the isometric tension, the strips were incubated with accumulative doses of the SUL-compounds (1-300 μM), followed by the addition of 0.01 μM isoprenaline.
To analyze potential role of the ß2-AR in the effects induced by the SUL-compounds, the strips were incubated with 1 μM propranonol for 30 minutes prior addition of the SUL-compounds. To analyze potential effects of the SUL-compounds on the isoprenaline-induced relaxation, the strips were first incubated with the SUL-compounds (30 μM each), followed by the addition of accumulative doses of isoprenaline (1×10.5-1 μM). Finally, to analyze potential effects of the SUL-compounds on the methacholine-induced contraction, the strips were first incubated with the SUL-compounds (30 μM each), followed by addition of accumulative doses of methacholine (0.001-30 μM), before the addition of 0.01 μM isoprenaline.
Data are shown are mean±standard error of the mean. One-way ANOVA followed by Bonferroni post hoc test, 2-tailed paired t-test, two-way ANOVA was used when appropriate to identify statistical difference between means. A statistical difference was defined as significant at p<0.05.

Data set [2] deals with IL-8 release from hTERT cells. Nature of the data set: Release of interleukin-8 (IL-8) from hTERT cells exposed to CSE. Type of data set: cell-based, human. Conditions: 24 hours, 15% CSE, ELISA (FIG. 2).
Source text: (§2) In this example, the effects of […] H2S compounds, i.e. SUL90, SUL121 were studied on: • 1) The cell viability of human (immortalized) airway smooth muscle cells (hTERT cells), • 2) The release of the inflammation mediator IL-8 from hTERT cells, • 3) Airway smooth muscle contractility of bovine trachea smooth muscle strips. The samples used were: • Two SUL-compounds: SUL90, SUL121; • Human telomerase reverse transcriptase immortalized airway smooth muscles (hTERT) cells, cultured as previously described (Oldenburger et al., 2012). Prior to the experiments, cells were serum-deprived for 1 day, followed by cell treatment with the indicated concentrations of the SUL-compounds in the absence and presence of 15% cigarette smoke extract (CSE) for additional 24 hours. As controls, 1 μM fenoterol and 500 μM of the H2S donor NaHS were used. • 100% cigarette smoke extract (CSE), freshly made by combusting (Watson Marlow 323 E/D, Rotterdam, The Netherlands) the smoke of two research cigarettes (University of Kentucky 2R4F) through 25 mL of DMEM (FBS-free) at a speed of approximately 1 cigarette/5 minutes. Afterwards, CSE was diluted to 15% (Oldenburger et al., 2012).
as §1
Assay 2: Release of interleukin-8 (IL-8) from hTERT Cells
This assay was used to determine the release of interleukin-8 from hTERT cells, fenoterol (1 μM) and the H2S donor (500 μM) served as controls. 24 hours after cell stimulation with the indicated concentrations of the SUL-compounds in the absence and presence of 15% CSW, culture medium was collected to measure the IL-8 concentration in the cell supernatants according to the manufacturer's instructions (PeliKine Compact ELISA kit, Sanquin, The Netherlands), as previously described (Oldenburger et al., 2012.

The next data set deals with hTERT cells. Description: Trypan blue cell counting (cell viability). In kind it is cell-based, human. Conditions: 24 hours, absence or presence of 15% CSE, trypan blue counting (FIG. 1).
Source text: as §2, §1
Assay 1: Trypan Blue Cell Counting
For cell viability measurements, trypan blue cell counting was performed as previously described (Oldenburger et al., 2012). As control, 500 μM of the H2S donor NaHS was used. Alternatively, alamar blue measurements were performed to determine cell viability essentially as described before (Oldenburger et al., 2012).
Briefly, hTERT cells were plated on 24-well plates as a cell density of 10,000 cells/well. Again cells were serum-deprived for 1 day, followed by cell treatment with the indicated concentrations of the SUL-compounds in the absence and presence of 15% cigarette smoke extract (CSE) for additional 24 hours.

[3] abbreviates: 1 μM propranolol pre-incubation, read-out: pD2, Propranolol (converted).
The mark [4] stands for this setting: solvent treated, read-out: pD2, Solvent (converted).

“Also recorded” adds a separate entry of the source. Like-named read-outs stand apart in the source and are kept apart here.

With `CC(C)NCC(O)c1ccc(O)c(O)c1` (centres unmarked) [Isoprenaline, reference compound], the EC50 in data set [1] (setting [3]) is 3.98 µM; in data set [1] (setting [4]), 0.02 µM.

Regarding `Cc1c(C)c2c(c(C)c1O)CCC(C)(C(=O)NO)O2` (centres unmarked) [Sul-90, N,6-dihydroxy-2,5,7,8-tetramethylchroman-2-carboxamide], the “effect of the ß2-adrenoceptor antagonist propranolol on the relaxation of BTSM strips induced by the compound” value in data set [1] was “trend to a left-ward shift; also recorded: does not alter the relaxation”; in data set [1] (listed as SUL90) it was “ß2-adrenoceptor-independent”; in data set [1] (listed as Sul90), “not affected by propranolol”. Also, the “shift of the dose response curve for isoprenaline (isoprenaline-induced relaxation)” value in data set [1] was “not”. For the same molecule, the “contraction induced by methacholine” value in data set [1] is “reduced the contraction; also recorded: decrease the contraction”; in data set [1] (listed as SUL90), “significantly reduce the contraction”. Also, the values for the EC50 in data set [1] (setting [3]) and in data set [1] (setting [4]) were 316 µM and 398 µM, respectively. In addition, in data set [1], the “relaxation of methacholine-pre-contracted BTSM strips” value was “shows a trend to induce relaxation”. Further, the “isometric tension of BTSM strips at 30 μM” value in data set [1] is “leave the isometric tension unaffected”. For the same molecule, in data set [1] (methacholine-pre-contracted BTSM strips (FIG. 3)), the “concentrations at which a trend to relaxation of BTSM strips is shown” value is listed as “higher than 100 μM”. Also, the “CSE-induced IL-8 release from hTERT cells” value is “significantly reduce the release; also recorded: inhibit CSE-induced IL-8 release” in data set [2] and “inhibit the cellular IL-8 release” in data set [2] (listed as SUL90). The “cell viability of hTERT cells” value is listed as “do not severely alter cell viability” with hTERT cells (listed as SUL90) and “seem not to severely alter the cell viability” in the data set on hTERT cells (listed as SUL-90).

As to `CC(C)NCC(O)COc1cccc2ccccc12` (centres unmarked) [propranolol, reference compound], in data set [1] (BTSM strips pre-incubated with 1 μM propranolol (FIG. 4)), the “shift of the dose-response curve for isoprenaline by propranolol” value is reported as “right-ward shift”.

`Cc1c(C)c2c(c(C)c1O)CCC(C)(C(=O)N1CCNCC1)O2` (centres unmarked) [Sul-121, (6-hydroxy-2,5,7,8-tetramethylchroman-2-yl)(piperazin-1-yl)methanone]: the “effect of the ß2-adrenoceptor antagonist propranolol on the relaxation of BTSM strips induced by the compound” value is reported as “not affected by propranolol; also recorded: does not alter the relaxation” in data set [1] and “ß2-adrenoceptor-independent” in data set [1] (listed as SUL121). Also, the entries for the “shift of the dose response curve for isoprenaline (isoprenaline-induced relaxation)” value in data set [1] and in data set [1] (listed as SUL212) were “significant right-ward shift; also recorded: shifts the dose response curve or isoprenaline to the right” and “right-ward shift”, respectively. The “contraction induced by methacholine” value in data set [1] is on record as “decrease the contraction”; in data set [1] (listed as SUL121), “significantly reduce the contraction”; in data set [1] (listed as Sul121), “reduced the contraction”. In addition, the EC50 in data set [1] (setting [3]) and in data set [1] (setting [4]) was 316 µM in each case. Besides, the “relaxation of methacholine-pre-contracted BTSM strips” value in data set [1] is given as “even more pronounced relaxation, reaching statistical significance; also recorded: induce relaxation”. In addition, the “isometric tension of BTSM strips at 30 μM” value in data set [1] was “leave the isometric tension unaffected”. Also, the “CSE-induced IL-8 release from hTERT cells” value in data set [2] is on record as “significantly reduce the release; also recorded: inhibit CSE-induced IL-8 release”; in data set [2] (listed as SUL121), “inhibit the cellular IL-8 release”. In addition, the “cell viability of hTERT cells” value with hTERT cells (listed as SUL121) was “do not severely alter cell viability”; in the data set with hTERT cells (listed as SUL-121), “seem not to severely alter the cell viability”.

Consider `Cc1c(C)c2c(c(C)c1O)CCC(C)(C(=O)N1CCN(CC(=O)O)CC1)O2` (centres unmarked) [Sul-136, 2-(4-(6-hydroxy-2,5,7,8-tetramethylchroman-2-carbonyl)piperazin-1-yl)acetic acid], for which, in data set [1], the “relaxation of methacholine-pre-contracted BTSM strips” value was “do not alter the contractile tone”. Moreover, in the data set with hTERT cells, the “cell viability of hTERT cells” value was “do not alter cell viability”.

For the origin of these results see patent US10322124B2, “6-hydroxy-2,5,7,8-tetramethylchroman-compounds for the treatment of chronic obstructive airway diseases” (Sulfateq B.V., priority 2014, dated 2019).
